{"source": "patent US20180325891A1", "about": "“OCTAHYDRO AZADECALIN FORMULATIONS” (Corcept Therapeutics, Inc., priority 2017, published 2018)", "test": "Solubility assessment of CORT125281 in various excipients", "assay_type": "physicochemical", "procedure": "The solubility of the API was assessed in Labrasol, Kolliphor RH40, Kollisolv P124 and Kolliphor HS15 in order to assess scope for formulation alternatives. […] It is probable that these would be able to be solubilized given more time/energy input.", "data": [{"smiles": "Cn1ncc(S(=O)(=O)N2CC[C@H]3Cc4c(cnn4-c4ccc(F)cc4)C[C@]3(C(=O)c3cc(C(F)(F)F)ccn3)C2)n1", "note": "[CORT125281, ((4aR,8aS)-1-(4-fluorophenyl)-6-((2-methyl-2H-1,2,3-triazol-4-yl)sulfonyl)-4,4a,5,6,7,8,8a,9-octahydro-1H-pyrazolo[3,4-g]isoquinolin-4a-yl)(4-(trifluoromethyl)pyridin-2-yl)methanone]", "values": [{"measurement": "solubility of the API in excipient, visual and microscopic analysis", "setting": "Kolliphor HS15 mix", "result": "visibly clear, but upon microscopic analysis, they were found to contain a small number of API crystals"}, {"measurement": "solubility of the API in excipient, visual and microscopic analysis", "setting": "Labrasol mix", "result": "visibly clear, but upon microscopic analysis, they were found to contain a small number of API crystals"}, {"measurement": "solubility of the API in excipient", "setting": "in Kolliphor RH40", "result": "< 40", "unit": "mg/g"}, {"measurement": "solubility of the API in excipient", "setting": "in Kollisolv P124", "result": "< 40", "unit": "mg/g"}]}]}
